{
  "source": "paper PMC12000251",
  "about": "“Evaluation of the Anti-Inflammatory Effects of Novel Fatty Acid-Binding Protein 4 Inhibitors in Microglia” (Journal of Neuroimmune Pharmacology, 2025)",
  "key": {"LPS-activated BV-2 cells [1]": {"tested_on": "LPS-activated BV-2 cells", "assay": "Extracellular nitrite (Griess assay) from LPS-activated BV-2 cells", "type": "cell-based, mouse", "settings": "50 µM, 1 µg/mL LPS 24 h", "description": "(§1) BV-2 cells were cultured in DMEM/F-12 media supplemented with 10% (v/v) FBS and 1% (v/v) penicillin/streptomycin, and kept at 37 °C in a humidified incubator ([…], 5% CO2) for all studies. Cells with 80% confluency were used for experiments. At 24 h post-seeding, BV-2 cells were treated with either of the MFP compounds (at concentrations detailed below) or vehicle (0.1% (v/v) DMSO) and 1 µg/mL LPS for a period of 24 h. In some experiments (detailed in Results), BV-2 cells were exposed to MFP compounds for 2 h before a 24 h exposure to LPS and MFP compounds, and in some studies, in the presence of FABP4 siRNA using a 24 h treatment that we have previously employed (Low et al. [2021]). […]\nFor measurement of extracellular nitrite concentrations, the Griess assay was performed as per the manufacturer’s protocol (Molecular Probes, Eugene, OR) with minor changes. […] The absorbance of the media samples was measured on a Perkin-Elmer Enspire plate reader at 548 nm, with nitrite concentrations in media samples obtained by back calculating sample absorbance values back to a standard curve prepared through serial dilution of NaNO2 prepared in media."}, "BV-2 cells": {"tested_on": "BV-2 cells", "assay": "MTT assay of BV-2 cell viability", "type": "cell-based, mouse", "settings": "24 h", "description": "BV-2 cells were cultured in DMEM/F-12 media supplemented with 10% (v/v) FBS and 1% (v/v) penicillin/streptomycin, and kept at 37 °C in a humidified incubator ([…], 5% CO2) for all studies. Cells with 80% confluency were used for experiments. At 24 h post-seeding, BV-2 cells were treated with either of the MFP compounds (at concentrations detailed below) or vehicle (0.1% (v/v) DMSO) and 1 µg/mL LPS for a period of 24 h. In some experiments (detailed in Results), BV-2 cells were exposed to MFP compounds for 2 h before a 24 h exposure to LPS and MFP compounds, and in some studies, in the presence of FABP4 siRNA using a 24 h treatment that we have previously employed (Low et al. [2021]). In brief, BV-2 cells were washed once 4 h post-seeding with blank DMEM/F-12 media. siRNA complexes (containing FABP4 siRNA, target sequence 5’-[…]-3’ or AllStar Negative Control siRNA, target sequence proprietary) were added dropwise onto the cells. siRNA complexes were prepared by mixing siRNA and HiPerfect transfection reagent together in FBS-free DMEM/F12 media and incubating for 15 min to allow the siRNA complexes to form. The cells were incubated with the siRNA complex for 5 min, after which, DMEM/F12 media containing FBS was added into each well to dilute the siRNA complexes to 5 nM.\nTo determine the most appropriate and tolerable concentration of MFP compounds in BV-2 cells, an MTT assay was performed. Following treatment with increasing concentrations of MFP compounds for 24 h, BV-2 cells were rinsed once with PBS prior to being incubated with 0.45 mg/mL MTT reagent for 4 h in a 37 °C, 5% CO2 incubator. After that, the MTT reagent was removed and 150 µL of DMSO was added into all wells for 30 min. The plate was then immediately read on a Perkin-Elmer Enspire fluorescence plate reader (Boston, MA) at 540 nm. Background subtraction was performed before the percentage cell viability was calculated and expressed as a ratio of mean absorbance of MFP-treated cells over mean absorbance of vehicle-treated cells."}, "[2]": {"biological_target": "T1, Recombinantly-expressed human FABP4 (Homo sapiens, UniProt P15090)", "T1 construct": "made in house", "T1 sequence (P15090 whole entry, the tested form may be a part)": "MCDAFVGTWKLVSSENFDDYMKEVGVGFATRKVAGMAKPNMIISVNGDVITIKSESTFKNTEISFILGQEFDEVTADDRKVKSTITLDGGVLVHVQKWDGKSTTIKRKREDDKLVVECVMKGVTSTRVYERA", "assay": "Isothermal titration calorimetry (ITC) binding affinity to FABP4", "settings": "one-site binding model, read-out: KD (ITC titration of FABP4, Figure S1)", "description": "A prior fragment screen identified a series of bi-aryl sulfonamides that bound to FABP4. Analogues of this chemical sulfonamide scaffold were then purchased, which led to the identification of the compounds used in this study (MFP-0011462, MFP-0012314, MFP-0012318, and MFP-0012328). Their predicted LogP and tPSA values were calculated in Vortex v2020.1.117658-s (Dotmatics, Boston, MA). The binding affinity of these four compounds was characterised by isothermal titration calorimetry (ITC). ITC was carried out using an iTC200 microcalorimeter (MicroCal, United Kingdom) with a coin shaped sample cell (201.4 μL) with stirring at 1000 rpm at 25°C. Titrations were performed in an ITC buffer (50 mM sodium phosphate, 50 mM NaCl, pH 7.4 with 2% DMSO). Compounds were diluted from concentrated stocks in ITC buffer and loaded into the titration syringe at a concentration of 1 mM, with a final DMSO concentration of 2% (v/v). Recombinantly-expressed human FABP4 was prepared as described previously (Lee et al. [2015a]) in an identical buffer at a protein concentration of 80 μM and placed in the sample cell. A thermal equilibration step at 25°C was followed by an initial 180 s delay step and subsequently an initial 0.2 μL injection. 16 serial injections of the 1 mM compound solution (2 μL each) were made at intervals of 220 s with continuous stirring of the solution in the sample cell. The iTC200 control software was used to operate and acquire raw data as power (microcalories/sec) vs time (min). The data were processed using the Origin 7.0 software (MicroCal) and the binding affinity (KD) was calculated by fitting the data to a one-site binding model."}, "LPS-activated BV-2 cells [3]": {"tested_on": "LPS-activated BV-2 cells", "assay": "TNF-α ELISA of supernatant of LPS-activated BV-2 cells", "type": "cell-based, mouse", "description": "as §1\nELISA was performed as per manufacturer’s protocol to measure the concentration of TNF-α in the supernatant in which BV-2 cells were treated. […] 100 µL of Stop solution was added into each well before the plate was immediately read on a Perkin-Elmer Enspire fluorescence plate reader at 450 nm […] and 570 nm (absorbance). Absorbance values at 570 nm were subtracted from 450 nm to account for background. TNF-α concentration was normalised to total protein count (mg), as quantified by a BCA assay, and reported as pg/mg protein."}},
  "note": "“And” between values parts separate entries of the source, which are not always exact repeats. Equal entries are not always repeated.",
  "data": [
    {"smiles": "O=C(O)c1cccc(NS(=O)(=O)c2ccc(Cl)c(Cl)c2)c1", "note": "[MFP-0012328]", "values": [
      {"measurement": "attenuation of LPS-mediated release of nitrite", "setting": "LPS-activated BV-2 cells [1]", "result": 51.3, "unit": "%"},
      {"measurement": "fold reduction in cell viability", "setting": "BV-2 cells; 75 µM and 100 µM of MFP-0012328, 100 µM of the other MFP compounds, range over the compounds", "result": "0.17–0.27 fold"},
      {"measurement": "BV-2 cell viability relative to vehicle control", "setting": "BV-2 cells; 2–50 µM, MTT", "result": "no significant differences"},
      {"measurement": "Kd", "setting": "[2]", "result": 0.316, "unit": "µM"},
      {"measurement": "reduction in extracellular concentration of TNF-α relative to LPS-only", "setting": "LPS-activated BV-2 cells [3]; 10 µM, 1 µg/mL LPS 24 h", "result": "25% and 24.8%"},
      {"measurement": "reduction of TNF-α release vs LPS-alone", "setting": "LPS-activated BV-2 cells [3]; BV-2 cells pre-treated with LPS for 4 h, then 10 µM compound", "result": 15.7, "unit": "%"}
    ]}
  ]
}
